Assay [1] is filed under the species Homo sapiens. Description: Inhibition of full length N-terminal his6-tagged human ARG-1 R205A mutant expressed in Escherichia coli BL21 (DE3) cells by mass spectrometry analysis.
Assay [2] concerns the target T1, Arginase-1 (Homo sapiens) (UniProt P05089).
T1 sequence (whole entry): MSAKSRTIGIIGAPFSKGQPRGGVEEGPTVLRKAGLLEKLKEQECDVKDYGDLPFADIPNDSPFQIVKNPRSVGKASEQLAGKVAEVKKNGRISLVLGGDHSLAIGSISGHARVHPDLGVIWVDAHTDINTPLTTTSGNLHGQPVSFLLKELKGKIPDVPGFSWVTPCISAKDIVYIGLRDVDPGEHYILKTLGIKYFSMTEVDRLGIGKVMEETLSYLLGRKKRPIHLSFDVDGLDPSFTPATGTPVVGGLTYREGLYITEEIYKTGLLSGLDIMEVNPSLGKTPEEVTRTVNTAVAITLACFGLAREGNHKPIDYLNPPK
Put plainly: Binding affinity to N-terminal his6-tagged truncated human ARG-1 expressed in Escherichia coli BL21 (DE3) cells assessed as thermal stabilization at 20 mM measured for 24 hrs by nanoDSF analysis. A general note: DSF heats the sample and reads unfolding from a dye or from intrinsic fluorescence.

In assay [3] the target is T1, Arginase-1 (Homo sapiens). Description: Inhibition of N-terminal his6-tagged truncated human ARG-1 expressed in Escherichia coli BL21 (DE3) cells at 10 mM incubated for 24 hrs.
The target of assay [4] is T1, Arginase-1 (Homo sapiens). Put plainly: Binding affinity to full length N-terminal his6-tagged human ARG-1 expressed in Escherichia coli BL21 (DE3) cells assessed as thermal stabilization at 0.625 to 20 mM measured for 24 hrs by nanoDSF analysis. The conditions noted are these: dose 0.625-20 mM.
Assay [5] has as its target T1, Arginase-1 (Homo sapiens). Description: Inhibition of full length N-terminal his6-tagged human ARG-1 expressed in Escherichia coli BL21 (DE3) cells at 10 mM incubated for 24 hrs relative to control.
The target of assay [6] is T1, Arginase-1 (Homo sapiens). Description: Inhibition of full length N-terminal his6-tagged human ARG-1 expressed in Escherichia coli BL21 (DE3) cells upto 20 mM incubated for 24 hrs by coomassie blue staining based SDS/PAGE analysis.

A word on the inhibition: it is the share of the control response that was lost under treatment.

SMILES strings stand for the structures. Calls of active or inactive are those of the source. The rule behind the calls is not given here.

For the molecule `O=CC(=O)c1ccccc1`, the inhibition entry in assay [1], in assay [3] and in assay [6] was “Active” throughout. The result in assay [2] and in assay [4] was Active. Besides, the inhibition in assay [5] amounted to 30%.
